Source: patent US6380387B1, “4-Pyrimidinyl-n-acyl-l phenylalanines” (Hoffmann-La Roche Inc., priority 1999, dated 2002)

Key:
VLA-4 (α4β1 integrin) [1] = target: T1, VLA-4 (α4β1 integrin) (Homo sapiens, UniProt P05556+P13612); experiment: Ramos (VLA-4)/VCAM-1 Cell-Based Screening Assay (cell adhesion); conditions: Calcein-AM labeled Ramos cells adhering to immobilized recombinant human VCAM-1
T1 construct: Ramos cells bearing cell-surface VLA-4; endogenous in cells; host or cells: Ramos cells
Protocol: Ramos (VLA-4)/VCAM-1 Cell-Based Screening Assay Protocol
Soluble recombinant human VCAM-1 (mixture of 5- and 7-Ig domain) was purified from CHO cell culture media by inmmunoaffinity chromatography and maintained in a solution containing 0.1 M Tris-glycine (pH 7.5), 0.1 M NaCl, 5 mM EDTA, 1 mM PMSF, […] NaN3 and 10 μg/mL leupeptin. Calcein-AM was purchased from Molecular Probes Inc.
VLA-4 (α4β1 integrin) antagonist activity, defined as ability to compete with cell-surface VLA-4 for binding to immobilized VCAM-1, was quantitated using a Ramos-VCAM-1 cell adhesion assay. Ramos cells bearing cell-surface VLA-4, were labeled with a fluorescent dye (Calcein-AM) and allowed to bind VCAM-1 in the presence or absence of test compounds. A reduction in fluorescence intensity associated with adherent cells (% inhibition) reflected competitive inhibition of VLA-4 mediated cell adhesion by the test compound.
Initially, this entailed coating 96 well plates (Nunc Maxisorp) with recombinant human VCAM-1 (100 ng in 100 μl PBS), sealing each plate and allowing the plates to stand at 4° C. for ≈18 hr. The VCAM-coated plates were subsequently washed twice with 0.05% Tween-20 in PBS, and then blocked for 1 hr (room temperature) with 200 μl of Blocking Buffer (1% BSA/0.02% thimerosal) to reduce non-specific binding. Following the incubation with Blocking Buffer, plates were inverted, blotted and the remaining buffer aspirated. Each plate was then washed with 300 μl PBS, inverted and the remaining PBS aspirated.
Test compounds were dissolved in 100% DMSO and then diluted 1:25 in VCAM Cell Adhesion Assay Buffer (4 mM CaCl2, 4 mM MgCl2 in 50 mM TRIS-HCl, pH 7.5) (final DMSO=4%). A series of eight 1:4 dilutions were performed for each compound (general concentration range of 1 nM-12,500 nM). 100 μl/well of each dilution was added to the VCAM-coated plates, followed by 100 μl of Ramos cells (200,000 cells/well in 1% BSA/PBS). Plates containing test compounds and Ramos cells were allowed to incubate for 45 min at room temperature, after which 165 μl/well PBS was added. Plates were inverted to remove non-adherent cells, blotted and 300 μl/well PBS added. Plates were again inverted, blotted and the remaining buffer gently aspirated. 100 μl Lysis Buffer (0.1% SDS in 50 mM TRIS-HCl, pH 8.5) was added to each well and agitated for 2 min on a rotary shaking platform. The plates were then read for fluorescence intensity on a Cytofluor 2300 (Millipore) fluorecence measurement system (excitation=485 nm, emission=530 nm). The results are shown in the following Table II, where (A=IC50<100 nM, B=IC50<10000 nM): […]

VLA-4 (α4β1 integrin) [2] = target: T1, VLA-4 (α4β1 integrin); experiment: VLA-4/VCAM-1 Screening Assay (solid-phase dual antibody ELISA); conditions: Ramos cell-derived VLA-4 binding to immobilized recombinant human VCAM-1
Protocol: VLA-4/VCAM-1 Screening Assay
VLA-4 antagonist activity, defined as ability to compete for binding to immobilized VCAM-1, was quantitated using a solid-phase, dual antibody ELISA. VLA-4 (α4β1 integrin) bound to VCAM-1 was detected by a complex of anti-integrin β1 antibody: HRP-conjugated anti-mouse IgG: chromogenic substrate (K-Blue). Initially, this entailed coating 96 well plates (Nunc Maxisorp) with recombinant human VCAM-1 (0.4 μg in 100 μl PBS), sealing each plate and then allowing the plates to stand at 4° C. for ˜18 hr. […] On the day of assay, all plates were washed twice with VCAM Assay Buffer (200 μl/well of 50 mM Tris-HCl, 100 mM NaCl, 1 mM MnCl2, 0.05% Tween 20; pH 7.4). Test compounds were dissolved in 100% DMSO and then diluted 1:20 in VCAM Assay Buffer supplemented with 1 mg/mL BSA (i.e., final DMSO=5%). A series of 1:4 dilutions were performed to achieve a concentration range of 0.005 nM-1.563 μM for each test compound. 100 μl per well of each dilution was added to the VCAM-coated plates, followed by 10 μl of Ramos cell-derived VLA-4. These plates were sequentially mixed on a platform shaker for 1 min, incubated for 2 hr at 37° C., and then washed four times with 200 μl/well VCAM Assay Buffer. 100 μl of mouse anti-human integrin β1 antibody was added to each well (0.6 μg/mL in VCAM Assay Buffer+1 mg/mL BSA) and allowed to incubate for 1 hr at 37° C. At the conclusion of this incubation period, all plates were washed four times with VCAM Assay Buffer (200 μl/well). A corresponding second antibody, HRP-conjugated goat anti-mouse IgG (100 μl per well @ 1:800 dilution in VCAM Assay Buffer+1 mg/mL BSA), was then added to each well, followed by a 1 hr incubation at room temperature and concluded by three washes (200 μl/well) with VCAM Assay Buffer. Color development was initiated by addition of 100 μl K-Blue per well (15 min incubation, room temp) and terminated by addition of 100 μl Red Stop Buffer per well. All plates were then read in a UV/Vis spectrophotometer at […]. Results were calculated as % inhibition of total binding (i.e., VLA-4+VCAM-1 in the absence of test compound). The results are provided in the following Table I (A=IC50<1 nM, B=IC50<10 nM): […]

T1 sequence (P13612 34-1032): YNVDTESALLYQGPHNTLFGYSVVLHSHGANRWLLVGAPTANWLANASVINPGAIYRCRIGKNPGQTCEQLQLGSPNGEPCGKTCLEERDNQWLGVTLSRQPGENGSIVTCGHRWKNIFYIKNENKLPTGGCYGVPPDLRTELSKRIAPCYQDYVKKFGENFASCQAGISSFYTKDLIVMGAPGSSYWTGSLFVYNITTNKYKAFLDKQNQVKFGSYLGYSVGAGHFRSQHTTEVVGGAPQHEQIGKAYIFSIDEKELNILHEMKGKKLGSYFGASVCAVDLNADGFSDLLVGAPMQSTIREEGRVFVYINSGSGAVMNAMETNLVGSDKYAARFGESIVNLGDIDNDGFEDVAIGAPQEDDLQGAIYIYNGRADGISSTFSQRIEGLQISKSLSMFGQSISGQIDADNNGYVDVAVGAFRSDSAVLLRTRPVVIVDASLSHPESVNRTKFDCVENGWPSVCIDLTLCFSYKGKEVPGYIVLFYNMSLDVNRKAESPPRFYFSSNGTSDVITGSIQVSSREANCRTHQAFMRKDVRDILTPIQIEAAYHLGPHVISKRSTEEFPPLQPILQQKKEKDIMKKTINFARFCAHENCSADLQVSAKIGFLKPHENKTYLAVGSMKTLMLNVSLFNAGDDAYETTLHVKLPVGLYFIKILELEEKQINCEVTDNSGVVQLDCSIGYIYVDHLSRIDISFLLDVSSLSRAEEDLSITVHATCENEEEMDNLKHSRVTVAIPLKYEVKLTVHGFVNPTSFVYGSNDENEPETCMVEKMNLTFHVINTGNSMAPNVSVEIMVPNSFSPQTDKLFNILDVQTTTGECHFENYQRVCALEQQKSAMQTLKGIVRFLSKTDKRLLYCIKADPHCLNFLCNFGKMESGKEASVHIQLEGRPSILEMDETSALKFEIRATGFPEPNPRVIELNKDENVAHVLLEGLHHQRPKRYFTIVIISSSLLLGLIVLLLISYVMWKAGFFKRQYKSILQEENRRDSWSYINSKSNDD
T1 sequence (P05556 21-798): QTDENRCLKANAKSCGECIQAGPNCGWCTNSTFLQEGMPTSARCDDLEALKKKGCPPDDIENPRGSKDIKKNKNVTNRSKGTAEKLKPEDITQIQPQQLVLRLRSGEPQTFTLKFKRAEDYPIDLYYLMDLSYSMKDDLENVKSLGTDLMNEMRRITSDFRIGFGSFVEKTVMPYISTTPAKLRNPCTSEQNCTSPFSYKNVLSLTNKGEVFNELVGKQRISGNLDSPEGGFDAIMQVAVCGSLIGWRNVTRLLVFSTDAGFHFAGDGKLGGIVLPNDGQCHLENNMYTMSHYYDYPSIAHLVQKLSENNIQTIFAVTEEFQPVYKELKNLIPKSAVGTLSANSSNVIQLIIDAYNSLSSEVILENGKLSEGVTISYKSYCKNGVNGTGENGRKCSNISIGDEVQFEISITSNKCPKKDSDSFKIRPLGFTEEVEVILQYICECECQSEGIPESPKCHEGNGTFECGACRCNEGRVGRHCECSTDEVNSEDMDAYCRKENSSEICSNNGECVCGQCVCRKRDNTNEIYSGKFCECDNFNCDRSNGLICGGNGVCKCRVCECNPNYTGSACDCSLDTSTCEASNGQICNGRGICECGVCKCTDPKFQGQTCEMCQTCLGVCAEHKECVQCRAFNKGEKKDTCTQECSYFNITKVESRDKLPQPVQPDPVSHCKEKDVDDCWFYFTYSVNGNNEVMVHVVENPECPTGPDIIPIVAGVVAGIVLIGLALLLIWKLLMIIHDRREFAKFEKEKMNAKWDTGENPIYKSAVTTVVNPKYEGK

In the case of `Cc1cccc(Cl)c1C(=O)N[C@@H](Cc1ccc(-c2cn(C)c(=O)n(C)c2=O)cc1)C(=O)O` [Example 2, N-[(2-chloro-6-methylphenyl)carbonyl]-4-(1,3-dimethyl-2,4-dioxo-5-pyrimidinyl)-L-phenylalanine], the IC50 (VLA-4 (α4β1 integrin) [1]) is reported as less than 0.1 µM, the melting point is reported as 234 to 236 °C and the IC50 (VLA-4 (α4β1 integrin) [2]) is reported as less than 1 nM.

In the case of `COCCC1(C(=O)N[C@@H](Cc2ccc(-c3cn(C)c(=O)n(C)c3=O)cc2)C(=O)O)CCCC1` [Example 3, 4-[(1,3-dimethyl-2,4-dioxo-5-pyrimidinyl)]-N-[[1-(2-methoxyethyl)cyclopentyl]carbonyl]-L-phenylalanine], the IC50 (VLA-4 (α4β1 integrin) [1]) is reported as less than 0.1 µM and the IC50 (VLA-4 (α4β1 integrin) [2]) is reported as less than 10 nM.

In the case of `Cc1cccc(Br)c1C(=O)N[C@@H](Cc1ccc(-c2cn(C)c(=O)n(C)c2=O)cc1)C(=O)O` [Example 4, N-[(2-bromo-6-methylphenyl)carbonyl]-4-(1,3-dimethyl-2,4-dioxo-5-pyrimidinyl)-L-phenylalanine], the IC50 (VLA-4 (α4β1 integrin) [1]) is reported as less than 0.1 µM and the IC50 (VLA-4 (α4β1 integrin) [2]) is reported as less than 1 nM.

`COc1ccc(Br)c(C(=O)N[C@@H](Cc2ccc(-c3cn(C)c(=O)n(C)c3=O)cc2)C(=O)O)c1` [Example 5, N-[(2-bromo-5-methoxyphenyl)carbonyl]-4-[1,3-dimethyl-2,4-dioxo-5-pyrimidinyl]-L-phenylalanine] showed an IC50 (VLA-4 (α4β1 integrin) [1]) of less than 10 µM and an IC50 (VLA-4 (α4β1 integrin) [2]) of less than 1 nM.

With `Cc1c(-c2ccc(C[C@H](NC(=O)c3c(Cl)cccc3C(C)C)C(=O)O)cc2)c(=O)n(C)c(=O)n1C` [Example 17, N-[[2-chloro-6-(2-methylethyl)phenyl]carbonyl]-4-(1,3,6-trimethyl-2,4-dioxo-5-pyrimidinyl)-L-phenylalanine] the melting point was 205 to 209 °C.

In the case of `CCN(CC)CCOC(=O)[C@H](Cc1ccc(-c2c(C)n(C)c(=O)n(C)c2=O)cc1)NC(=O)c1c(Cl)cccc1Cl` [Example 28, N-[(2,6-dichlorophenyl)carbonyl]-4-(1,3,6-trimethyl-2,4-dioxo-5-pyrimidinyl)-L-phenylalanine 2-[(N,N-diethyl)amino]ethyl ester], the IC50 (VLA-4 (α4β1 integrin) [1]) is reported as less than 0.1 µM.

In the case of `CCN(CC)CCOC(=O)[C@H](Cc1ccc(-c2c(C)n(C)c(=O)n(C)c2=O)cc1)NC(=O)c1c(C)cccc1Cl` [Example 29, N-[(2-chloro-6-methylphenyl)carbonyl]-4-(1,3,6-trimethyl-2,4-dioxo-5-pyrimidinyl)-L-phenylalanine 2-[(N,N-diethyl)amino]ethyl ester], the IC50 (VLA-4 (α4β1 integrin) [1]) is reported as less than 0.1 µM.

Work on `CCOC(=O)[C@H](Cc1ccc(-c2c(C)n(C)c(=O)n(C)c2=O)cc1)NC(=O)c1c(C)cccc1Cl` [Example 30, N-[(2-chloro-6-methylphenyl)carbonyl]-4-(1,3,6-trimethyl-2,4-dioxo-5-pyrimidinyl)-L-phenylalanine ethyl ester] yielded an IC50 (VLA-4 (α4β1 integrin) [1]) of less than 10 µM.

For `Cc1c(-c2ccc(C[C@H](NC(=O)c3c(Cl)cccc3Cl)C(=O)OCCN3CCOCC3)cc2)c(=O)n(C)c(=O)n1C` [Example 31, N-[(2,6-dichlorophenyl)carbonyl]-4-(1,3,6-trimethyl-2,4-dioxo-5-pyrimidinyl)-L-phenylalanine 2-(4-morpholino)ethyl ester], the IC50 (VLA-4 (α4β1 integrin) [1]) was less than 10 µM and the melting point was 90 to 94 °C.

For `Cc1cccc(Cl)c1C(=O)N[C@@H](Cc1ccc(-c2c(C)n(C)c(=O)n(C)c2=O)cc1)C(=O)OCCN1CCOCC1` [Example 32, N-[(2-chloro-6-methylphenyl)carbonyl]-4-(1,3,6-trimethyl-2,4-dioxo-5-pyrimidinyl)-L-phenylalanine 2-(4-morpholino)ethyl ester], the IC50 (VLA-4 (α4β1 integrin) [1]) was less than 10 µM.

`CC(=O)OC(C)OC(=O)[C@H](Cc1ccc(-c2c(C)n(C)c(=O)n(C)c2=O)cc1)NC(=O)c1c(Cl)cccc1Cl` (stereo partly drawn) [Example 33, N-[(2,6-dichlorophenyl)carbonyl]-4-(1,3,6-trimethyl-2,4-dioxo-5-pyrimidinyl)-L-phenylalanine 1-(acetoxy)ethyl ester] showed an IC50 (VLA-4 (α4β1 integrin) [1]) of less than 10 µM and a melting point of 168 to 170 °C.

With `CC(=O)OC(C)OC(=O)[C@H](Cc1ccc(-c2c(C)n(C)c(=O)n(C)c2=O)cc1)NC(=O)c1c(C)cccc1Cl` (stereo partly drawn) [Example 34, N-[(2-chloro-6-methylphenyl)carbonyl]-4-(1,3,6-trimethyl-2,4-dioxo-5-pyrimidinyl)-L-phenylalanine 1-(acetoxy)ethyl ester] the IC50 (VLA-4 (α4β1 integrin) [1]) was less than 10 µM and the melting point was 84 to 88 °C.

Work on `Cc1c(-c2ccc(C[C@H](NC(=O)[C@@H]3CCCN3)C(=O)O)cc2)c(=O)n(C)c(=O)n1C` [Example 35, L-prolyl-4-(1,3,6-trimethyl-2,4-dioxo-5-pyrimidinyl)-L-phenylalanine] yielded an IC50 (VLA-4 (α4β1 integrin) [1]) of less than 0.1 µM.
